Laboratory results: publication PMC12147714 (FEMS Microbiology Letters, 2025)

How the values were obtained:
[1] = system: PAO1 TnoprD producing IMP-1; assay: MIC and checkerboard by broth microdilution, recombinant strain; type: cell-based, Pseudomonas aeruginosa; settings: IMP-1 TnoprD; antibiotic alone
Protocol: (§1) The fractional inhibitory concentration index (FICI) was calculated and interpreted as follows: the MIC of drug A in combination/the MIC of drug A alone + the MIC of drug B in combination/the MIC drug B alone. FICI ≤ 0.5 = synergy; 0.5 < FICI ≤ 1 = additive; FICI 1 < FICI < 2 = indifference, and FICI ≥ 2 = antagonism. All susceptibility testing/checkerboard assays were performed in triplicate.

[2] = system: PAO1 TnoprD producing VIM-1; assay: as above; type: cell-based, Pseudomonas aeruginosa; settings: VIM-1 TnoprD; antibiotic alone
Protocol: as §1

PAO1 producing IMP-10 = assay: as above; type: cell-based, Pseudomonas aeruginosa; settings: antibiotic alone
Protocol: as §1

[3] = system: PAO1 TnoprD producing NDM-1; assay: as above; type: cell-based, Pseudomonas aeruginosa; settings: NDM-1 TnoprD; antibiotic alone
Protocol: as §1

PAO1 producing NDM-1 = assay: as above; type: cell-based, Pseudomonas aeruginosa; settings: antibiotic alone
Protocol: as §1

PAO1 producing IMP-13 = assay: as above; type: cell-based, Pseudomonas aeruginosa; settings: antibiotic alone
Excerpt: (§2) Pseudomonas aeruginosa isolate, PAO1, was used alongside its isogenic counterpart, PAO1 TnoprD, which lacks a functional OprD porin (Held et al. [2012]). β-lactamases, blaIMP-1, blaIMP-10, blaIMP-13, blaNDM-1, blaSPM-1, blaVIM-1, blaVIM-2, and blaKPC-2, had previously been cloned into the pUCP24 shuttle vector (Bouvier et al. [2025]), and were transformed by electroporation into both PAO1 and PAO1 TnoprD.
as §1, with “. MICs of DMSA, CAZ, FEP and checkerboards for the combinations, CAZ/DMSA and FEP/DMSA, were performed for all clinical isolates. All susceptibility testing results were interpreted according to CLSI guidelines (CLSI [2023]). The” for “The”

[4] = system: PAO1 TnoprD producing VIM-2; assay: as above; type: cell-based, Pseudomonas aeruginosa; settings: VIM-2 TnoprD; antibiotic alone
Excerpt: as §2
as §1, with “. MICs of DMSA, CAZ, FEP and checkerboards for the combinations, CAZ/DMSA and FEP/DMSA, were performed for all clinical isolates. All susceptibility testing results were interpreted according to CLSI guidelines (CLSI [2023]). The” for “The”

[5] = system: PAO1 TnoprD producing IMP-13; assay: as above; type: cell-based, Pseudomonas aeruginosa; settings: IMP-13 TnoprD; antibiotic alone
Excerpt: as §2
as §1, with “. MICs of DMSA, CAZ, FEP and checkerboards for the combinations, CAZ/DMSA and FEP/DMSA, were performed for all clinical isolates. All susceptibility testing results were interpreted according to CLSI guidelines (CLSI [2023]). The” for “The”

PAO1 producing SPM-1 = assay: as above; type: cell-based, Pseudomonas aeruginosa; settings: antibiotic alone
Excerpt: as §2
as §1, with “. MICs of DMSA, CAZ, FEP and checkerboards for the combinations, CAZ/DMSA and FEP/DMSA, were performed for all clinical isolates. All susceptibility testing results were interpreted according to CLSI guidelines (CLSI [2023]). The” for “The”

PAO1 producing VIM-2 = assay: as above; type: cell-based, Pseudomonas aeruginosa; settings: antibiotic alone
Excerpt: as §2
as §1, with “. MICs of DMSA, CAZ, FEP and checkerboards for the combinations, CAZ/DMSA and FEP/DMSA, were performed for all clinical isolates. All susceptibility testing results were interpreted according to CLSI guidelines (CLSI [2023]). The” for “The”

PAO1 producing IMP-1 = assay: as above; type: cell-based, Pseudomonas aeruginosa; settings: antibiotic alone
Excerpt: as §2
as §1, with “. MICs of DMSA, CAZ, FEP and checkerboards for the combinations, CAZ/DMSA and FEP/DMSA, were performed for all clinical isolates. All susceptibility testing results were interpreted according to CLSI guidelines (CLSI [2023]). The” for “The”

PAO1 producing VIM-1 = assay: as above; type: cell-based, Pseudomonas aeruginosa; settings: antibiotic alone
Excerpt: as §2
as §1, with “. MICs of DMSA, CAZ, FEP and checkerboards for the combinations, CAZ/DMSA and FEP/DMSA, were performed for all clinical isolates. All susceptibility testing results were interpreted according to CLSI guidelines (CLSI [2023]). The” for “The”

[6] = system: PAO1 TnoprD producing SPM-1; assay: as above; type: cell-based, Pseudomonas aeruginosa; settings: SPM-1 TnoprD; antibiotic alone
Excerpt: as §2
as §1, with “. MICs of DMSA, CAZ, FEP and checkerboards for the combinations, CAZ/DMSA and FEP/DMSA, were performed for all clinical isolates. All susceptibility testing results were interpreted according to CLSI guidelines (CLSI [2023]). The” for “The”

[7] = system: PAO1 TnoprD producing IMP-10; assay: as above; type: cell-based, Pseudomonas aeruginosa; settings: IMP-10 TnoprD; antibiotic alone
Excerpt: as §2
as §1, with “. MICs of DMSA, CAZ, FEP and checkerboards for the combinations, CAZ/DMSA and FEP/DMSA, were performed for all clinical isolates. All susceptibility testing results were interpreted according to CLSI guidelines (CLSI [2023]). The” for “The”

MBL-producing E. coli = settings: high concentrations, ref Cheminet et al. 2020, cited from earlier work
SPM-1 = SPM-1 (Pseudomonas aeruginosa, UniProt Q8G9Q0); assay: IC50, inhibition of cephalothin hydrolysis by crude extract; settings: SPM-1; 100 μM cephalothin, pH 7.0
Sequence of SPM-1 (Q8G9Q0 entry or part of it): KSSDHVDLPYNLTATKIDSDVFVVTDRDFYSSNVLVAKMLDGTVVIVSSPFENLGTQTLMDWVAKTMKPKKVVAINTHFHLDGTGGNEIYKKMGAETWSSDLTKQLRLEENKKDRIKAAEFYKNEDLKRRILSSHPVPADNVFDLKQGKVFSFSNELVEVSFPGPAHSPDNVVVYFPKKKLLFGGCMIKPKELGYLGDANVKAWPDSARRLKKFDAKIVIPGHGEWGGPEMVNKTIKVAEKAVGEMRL

IMP-10 = IMP-10 (Serratia marcescens, UniProt P52699, V49F); assay: as above; settings: IMP-10; 100 μM cephalothin, pH 7.0
Sequence of IMP-10 (P52699 19-246 V49F): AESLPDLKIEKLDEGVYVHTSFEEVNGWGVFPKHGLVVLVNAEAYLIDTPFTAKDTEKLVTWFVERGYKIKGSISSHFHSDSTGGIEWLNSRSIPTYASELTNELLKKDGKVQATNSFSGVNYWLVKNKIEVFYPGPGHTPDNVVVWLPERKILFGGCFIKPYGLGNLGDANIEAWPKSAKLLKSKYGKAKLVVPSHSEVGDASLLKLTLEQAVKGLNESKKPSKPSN

[8] = system: MBL-producers in isogenic strains of P. aeruginosa; set-up: method as in Bouvier et al. 2025; settings: ref Bouvier et al. 2025, cited from earlier work
VIM-1 = VIM-1 (Pseudomonas aeruginosa, UniProt A0A0F7KYQ8); assay: IC50, inhibition of cephalothin hydrolysis by crude extract; settings: VIM-1; 100 μM cephalothin, pH 7.0
IMP-13 = IMP-13 (Pseudomonas aeruginosa, UniProt Q7WYA8); assay: as above; settings: IMP-13; 100 μM cephalothin, pH 7.0
Sequence of IMP-13 (Q7WYA8 21-246): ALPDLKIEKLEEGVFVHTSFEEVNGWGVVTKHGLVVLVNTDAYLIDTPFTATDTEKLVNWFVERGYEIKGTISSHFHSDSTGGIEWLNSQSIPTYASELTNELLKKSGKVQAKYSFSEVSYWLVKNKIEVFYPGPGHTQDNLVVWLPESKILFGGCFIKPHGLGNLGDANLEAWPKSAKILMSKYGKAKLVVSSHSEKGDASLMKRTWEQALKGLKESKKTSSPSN

[9] = set-up: method as in van Eijkeren et al. 2016; settings: 30 mg/kg dose; ref van Eijkeren et al. 2016; cited from earlier work
NDM-1 = NDM-1 (Klebsiella pneumoniae, UniProt C7C422); assay: IC50, inhibition of cephalothin hydrolysis by crude extract; settings: 100 μM cephalothin, pH 7.0
Sequence of NDM-1 (C7C422 29-270 limits assumed): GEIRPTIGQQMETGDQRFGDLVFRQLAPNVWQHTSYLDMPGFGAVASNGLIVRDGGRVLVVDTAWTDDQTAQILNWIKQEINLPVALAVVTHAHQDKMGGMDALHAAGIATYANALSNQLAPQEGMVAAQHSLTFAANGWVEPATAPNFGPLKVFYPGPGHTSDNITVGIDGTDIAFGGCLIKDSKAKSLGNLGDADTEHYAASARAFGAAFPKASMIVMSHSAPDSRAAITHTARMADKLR

VIM-2 = VIM-2 (Escherichia coli, UniProt Q5U7L7); assay: as above; settings: VIM-2; 100 μM cephalothin, pH 7.0

Question: Which MIC [1] does the source give for `CC(C)(O/N=C(\C(=O)N[C@@H]1C(=O)N2C(C(=O)[O-])=C(C[n+]3ccccc3)CS[C@H]12)c1csc(N)n1)C(=O)O` [CAZ, ceftazidime] here?
Answer: 1020 µg/mL

Question: And the MIC [2]?
Answer: 2050 µg/mL

Question: And the MIC (PAO1 producing IMP-10)?
Answer: 2050 µg/mL

Question: And the MIC [3]?
Answer: 4100 µg/mL

Question: What about the MIC (PAO1 producing NDM-1) of the same compound?
Answer: 4100 µg/mL

Question: And the MIC (PAO1 producing IMP-13)?
Answer: 64 µg/mL

Question: What about the MIC [4] of the same compound?
Answer: 8 µg/mL

Question: What about the MIC [5] of the same compound?
Answer: 64 µg/mL

Question: And the MIC (PAO1 producing SPM-1)?
Answer: 512 µg/mL

Question: And the MIC (PAO1 producing VIM-2)?
Answer: 8 µg/mL

Question: And the MIC (PAO1 producing IMP-1)?
Answer: 1020 µg/mL

Question: What about the MIC (PAO1 producing VIM-1) of the same compound?
Answer: 2050 µg/mL

Question: And the MIC [6]?
Answer: 512 µg/mL

Question: And the MIC [7]?
Answer: 2050 µg/mL

Question: With `O=C(O)[C@@H](S)[C@@H](S)C(=O)O` [DMSA, meso-dimercaptosuccinic acid] as the compound, how does the “efficacy in mouse peritonitis model” value (MBL-producing E. coli; MBL-producing E. coli) read?
Answer: effective

Question: And the “tolerability in mouse peritonitis model” value (MBL-producing E. coli)?
Answer: well-tolerated

Question: And the IC50 (SPM-1)?
Answer: > 1 mM

Question: What about the IC50 (IMP-10) of the same compound?
Answer: 50 µM

Question: And the “effect on carbapenem (IPM and MEM) MICs” value ([8]; DMSA at 3 mM)?
Answer: significantly reduce

Question: And the “type of interaction with carbapenems” value [8]?
Answer: additive

Question: What about the IC50 (VIM-1) of the same compound?
Answer: > 1 mM

Question: What about the IC50 (IMP-13) of the same compound?
Answer: 350 µM

Question: What about the tolerability [9] of the same compound?
Answer: well tolerated

Question: And the IC50 (NDM-1)?
Answer: > 1 mM

Question: And the IC50 (VIM-2)?
Answer: > 1 mM
